# In PMC6891598, “Application of N-Dodecyl L-Peptide to Enhance Serum Stability while Maintaining Inhibitory Effects on Myometrial Contractions Ex Vivo” (Molecules, 2019):
# Entries after “also recorded” stand apart in the source; their conditions may differ. Residues, ends and D or L forms follow the SMILES beside them.
# Columns and labels:
# [1] = tested on: murine myometrial tissue (KCl-induced tension); assay: mean tension induced by KCl (positive control) in mouse myometrial tissue; design: species or system mouse (CD-1); conditions: post-partum mouse myometrial tissue
# Protocol: (§1) All the peptides were initially tested in an ex vivo mouse myometrial tissue contraction assay. Contractile activity was measured on tissue that was harvested post-partum and treated with prostaglandin F2α (PGFα) alone (control) or in the presence of peptides L-4b-4g, L-7, and L-8. […] Mean tension induced by KCl (as a positive control) was not affected by L-4d.
# The uterus from the CD-1 mouse was obtained from the animal immediately after term delivery under anesthesia (2.5% isoflurane). Briefly, a midline abdominal incision was made and the uterine horns were rapidly excised, cleansed carefully of the surrounding connective tissues, and removed. Longitudinal myometrial strips (2 to 3 mm wide and 1 cm long) were dissected free from the uterus and mounted isometrically in organ tissue baths. The initial tension was set at 2 g. […] Isometric tension was measured by a force transducer and recorded by a BIOPAC data acquisition system (BIOPAC MP150, Montreal, PQ, Canada). […] Mean tension of spontaneous contractions was measured using a BIOPAC digital polygraph system (AcqKnowledge); the same parameters were also determined after addition of PGF2α in the presence or the absence of a 20 min-pretreatment with different FP inhibitors. […] Changes in mean tension (g) were expressed as percentages of the initial reference response (% of baseline).
# [2] = tested on: murine myometrial tissue (PGF2α-induced contractions; FP); assay: ex vivo mouse myometrial tissue contraction assay (PGF2α-induced); design: species or system mouse (CD-1); conditions: post-partum CD-1 mouse myometrial strips, Krebs buffer pH 7.4, 37 °C, 20 min pretreatment with peptide at two concentrations, then PGF2α; 4–6 experiments per group, means ± SEM, t-test, p < 0.05 vs vehicle
# Protocol: as §1
# Pregnant CD-1 mice (16-17 days gestation, term 19 days) were obtained from Charles River Inc. and used according to a protocol of the Animal Care Committee of Hôpital Sainte-Justine according to the principles of the Guide for the Care and Use of Experimental Animals of the Canadian Council on Animal Care. The animals were maintained on standard laboratory chow under a 12:12 light:dark cycle and allowed free access to chow and water.
# The uterus from the CD-1 mouse was obtained from the animal immediately after term delivery under anesthesia (2.5% isoflurane). Briefly, a midline abdominal incision was made and the uterine horns were rapidly excised, cleansed carefully of the surrounding connective tissues, and removed. Longitudinal myometrial strips (2 to 3 mm wide and 1 cm long) were dissected free from the uterus and mounted isometrically in organ tissue baths. The initial tension was set at 2 g. The tissue baths contained 20 mL of Krebs buffer of the following composition (in mM): 118 NaCl, 4.7 KCl, 2.5 CaCl2, 0.9 MgSO4, 1 KH2PO4, 11.1 glucose, and 23 NaHCO3 (pH 7.4). The buffer was equilibrated with 95% oxygen/5% carbon dioxide at 37 °C. Isometric tension was measured by a force transducer and recorded by a BIOPAC data acquisition system (BIOPAC MP150, Montreal, PQ, Canada). Experiments were begun after 1 h equilibration. Mean tension of spontaneous contractions was measured using a BIOPAC digital polygraph system (AcqKnowledge); the same parameters were also determined after addition of PGF2α in the presence or the absence of a 20 min-pretreatment with different FP inhibitors. At the start of each experiment, mean tension of spontaneous myometrial contractions was considered as a reference response. Changes in mean tension (g) were expressed as percentages of the initial reference response (% of baseline).
# At the start of each experiments, mean tension of spontaneous myometrial contractions was considered as a reference response. Increase in mean tension (%) was expressed as percentages of (X/Y)-100, where X is the change in mean tension (g) induced by PGF2α and Y is the initial reference response (g). Data are representative of 4–6 experiments per treated group. All results are expressed as means ± SEM and were compared by Independent t-tests. Statistical tests were performed with GraphPad Prism 4.3 software and p < 0.05 was considered statistically significant.
# [3] = serum stability study (mouse serum/plasma, MS/MS); format: in vitro ADME; conditions: mouse plasma (method: serum), 37 °C, incubation up to 2 hours, LC-MS/MS, internal standard L-4f
# Protocol: Peptide L-4d was further examined for stability in serum and compared to L-PDC31. The two peptides were incubated at 37 °C in mouse plasma. Aliquots were removed at different time intervals and analyzed by mass spectrometry (MS/MS) to detect remaining amount of peptide (Figure 3).
# Serum was […] and kept on ice throughout the procedure. Two blanks were prepared by adding 5 µL of DMSO to 95 µL of serum. These were incubated for 2 h and submitted to the same treatment as the other samples. Two series of vials containing 95 µL of serum were prepared and spiked with either 5 µL of L-PDC31 [0.4 mM] or L-4d [0.4 mM], and incubated for 120, 60, 30, 15, 10 and 5 min, respectively, after which 100 µL of 4% phosphoric acid was added. Two vials were also spiked with 5 µL L-PDC31 and L-4d, respectively, and immediately treated with phosphoric acid (time = 0 min). The vials were incubated for 5 min at 95 °C, cooled on ice for 2 min, treated with 600 µL of cold MeCN containing L-4f (0.02 mM) as internal standard, and incubated at –20 °C overnight. After the incubation period, the vials were vortexed for 2 min and centrifuged at 4 °C for 15 min. The supernatant was transferred into LC-MS vials and analyzed.
# Results were expressed as: (AN/IS/AN0/IS0)∗100
# AN and IS refer, respectively, to the analyte and internal standard MS signals. Both values are compared with initial injection at which time AN0 and IS0 were not incubated.
# [4] = tested on: LPS-induced preterm delivery in pregnant CD-1 mice; assay: LPS-induced mouse preterm birth (PTB) model; format: in vivo, mouse (CD-1); conditions: gestational day 16, LPS 10 μg/animal i.p., L-4d 20 mg/day/animal by s.c. osmotic pump after 0.1 mg/animal i.p. bolus, n = 5 (saline n = 4)
# Protocol: (§2) The ability of peptide L-4d to delay labor in vivo was next tested in mice near term and treated with lipopolysaccharide (LPS) Escherichia coli endotoxin, as a pathogen associated molecular pattern, which is known to promote a general inflammatory state resulting in prostaglandin synthesis and induced premature delivery. Following LPS injection into mice (n = 4–5) at gestational day 16, all the animals tested delivered within 12−24 h.
# Timed-pregnant CD-1 mice at 16 days gestation (normal term is 19.2 days) were anesthetized with isoflurane (2%). Primed osmotic pumps (Alzet pump, Alzet, Cupertino, CA) containing either saline (n = 4) or compound L-4d (20 mg/day/animal, n = 5) were respectively subcutaneously implanted on the backs of the animals; infusion of peptide was immediately preceded by bolus injection of peptide (0.1 mg/animal intraperitoneally). Within 15 min after placement of the pumps, animals were injected with lipopolysaccharide (LPS) Escherichia coli endotoxin (10 μg/animal intraperitoneally) to mimic the inflammatory/infectious component of human preterm labor. Animals were inspected every hour for the first 18 h and every 2 h thereafter to document the timing of birth. Results are expressed as percentages of animals delivered following the injection of LPS [57]. […]
# [5] = tested on: LPS-induced preterm delivery in pregnant CD-1 mice; conditions: cited from earlier work
# Protocol: as §2
# [6] = tested on: intrauterine pressure and pain in women with primary dysmenorrhea; conditions: phase Ib; cited from earlier work
# Excerpt: The prostaglandin F2α receptor (FP) is a promising target for delaying labor because of its relevant involvement in parturition. At the beginning of labor and preterm labor, FP expression increases. […] Targeting FP, the tocolytic prototype PDC31 is currently undergoing clinical trials.
# [7] = tested on: murine myometrial tissue (PGF2α-induced contractions; FP); conditions: cited from earlier work
# Excerpt: Moreover, addition of the dodecyl chain enhanced plasma stability.
# [8] = tested on: prostaglandin F2α receptor (FP); conditions: FP inhibition, cited from earlier work
# Protocol: The development of PDC31 originated from a library of sequences based on the second extracellular loop of FP. Short lead peptides were analyzed initially using in vitro and ex vivo analyses. […] Moreover, addition of the dodecyl chain enhanced plasma stability.
Compound,effect on mean tension induced by KCl (positive control) [1],effect on PGF2α-induced contractions (mean tension) of myometrial tissue [2],"stability in mouse plasma, in words [3]",ability to delay labor (time of delivery) in LPS-induced PTB model [4],ability to delay labor in the PTB model [5],safety and effect on intrauterine pressure and pain [6],effect on spontaneous and PGF2α-induced contractions in postpartum mice myometrium [7],efficacy [8],IC50 ([8]; read-out: potency (IC50))
"CCCCCCCCCCCCN[C@H](C(=O)N[C@@H](CC(C)C)C(=O)NCC(=O)N[C@@H](Cc1c[nH]cn1)C(=O)N[C@@H](CCCNC(N)=O)C(=O)N[C@@H](CC(=O)O)C(=O)N[C@@H](Cc1ccc(O)cc1)C(=O)N[C@@H](CCCCN)C(=O)O)[C@@H](C)CC [L-4d, N-Dodecyl-Ile-Leu-Gly-His-Cit-Asp-Tyr-Lys-OH] (HELM PEPTIDE1{[CCCCCCCCCCCCN[C@H](C(=O)[*:2])[C@@H](C)CC].L.G.H.[Cit].D.Y.K}$$$$V2.0)",not affected,significant reduction of contractions; also recorded: able to reduce uterine contractions induced by PGF2α; also recorded: significant reduction of PGF2α-induced contractility,still present after 2 hours of incubation,unable to exhibit a statistically significant reduction in the time of delivery; also recorded: failed to prolong labor in vivo; also recorded: inactive in vivo; also recorded: no significant ability to delay labor,,,,,
H-ile-leu-Gly-his-cit-asp-tyr-lys-OH [PDC31],,,,,delay labor,safe in reducing intrauterine pressure and pain associated with excessive uterine contractility,reduce both the strength and length of spontaneous and PGF2α-induced contractions,> 85%,13 nM
